Each compound was assayed on Plasmodium falciparum (assay: GSK_TCMDC: Inhibition of Plasmodium falciparum 3D7 in whole erythrocytes, using parasite LDH activity as an index of growth.). Conditions: Plasmodium falciparum, 3D7.
Type: functional, organism-based
Compound CC(C)NC(=O)c1cccc(-c2ccc(OCCN3CCCC3c3cc4ccccc4[nH]3)cc2)c1 (stereo not drawn) has an XC50 of 958 nM. Compound COc1cccc2c(N/N=C/c3ccccc3[N+](=O)[O-])cc(C)nc12 has an XC50 of 424 nM. O=C(C1COc2ccccc2O1)N(CCCn1ccnc1)Cc1csc(-c2ccc(CNCc3ccccc3)cc2)n1 (stereo not drawn) was tested, and the XC50 was 619 nM. Cc1[nH]c(C)c(-c2ccc(-c3ccc(C(F)F)cc3)nc2)c(=O)c1Cl gave an XC50 of 241 nM. CCCCc1ccc(-c2ccc3[nH]c(C)c(Br)c(=O)c3c2)cc1 gave an XC50 of 105 nM. CS(=O)(=O)CCNC(=O)c1ccc(-c2cc3c(Nc4ccc5c(cnn5Cc5ccccc5)c4)ncnc3cn2)o1 gave an XC50 of 995 nM. Cc1cc(-c2ccc(CNC3Cc4ccccc4C3)cc2)ccc1S(=O)(=O)NCCN1CCCC1 gave an XC50 of 704 nM. O=C(Nc1ccc(Cl)cc1)N[C@H]1CCN(CCCCCNC(=O)C2CC2c2ccc(Cl)c(Cl)c2)C1 (stereo partly drawn) gave an XC50 of 874 nM. With Cc1[nH]c(C)c(-c2ccc(Nc3ccc(C(F)(F)F)cn3)cc2)c(=O)c1Br the XC50 was 26 nM. For CCOC(=O)c1c(CCc2ccc(C(F)(F)F)cc2)nc2c(c1-c1ccc(C(=O)N[C@@H](C)c3ccncc3)cc1)C(=O)N1CCC[C@@H]21, the XC50 was 924 nM. For CCc1nc2c(cnn2CC)c(NC2CCOCC2)c1CNC(=O)N1CCOCC1, the XC50 was 892 nM. Compound COc1ccc(CNC(=O)c2cnc3cc(-c4c(C)noc4C)ccc3c2Nc2ccccc2C(C)(C)C)cc1 has an XC50 of 1300 nM. Cn1c(N)c(N=O)c(=O)[nH]c1=O gave an XC50 of 176 nM. Work on CC(=O)c1c(CC(=O)O)c2ccccc2n1O yielded an XC50 of 735 nM. COc1ccc2nccc([C@@H](O)CN3CCC(c4cc(-c5ccc(Cl)cc5)[nH]n4)CC3)c2n1 was tested, and the XC50 was 737 nM. In the case of CCn1c(-c2nonc2N)nc2c(-c3cccc(NC(=O)Nc4cccc(C#N)c4)c3)ncc(OCCCN)c21, the XC50 was 669 nM. N=C(N)Nc1ccc(Cc2ccc(NC(=N)N)cc2)cc1 was tested, and the XC50 was 255 nM. Compound Cc1[nH]c(C)c(-c2ccc(CCc3cccc(C(F)(F)F)c3)nc2)c(=O)c1Cl has an XC50 of 101 nM. For CN1CCC(N(Cc2ccc(-c3ccc(C(F)(F)F)cc3)cc2)C(=O)Cn2c(SCc3cccc(F)c3F)cc(=O)c3c2CCC3)CC1, the XC50 was 161 nM. Compound CCc1sc(N2CCN(C)CC2)nc1C(=O)Nc1ccc(F)cc1C(F)(F)F has an XC50 of 178 nM. With O=C(Cc1c[nH]cn1)Nc1cccc(-c2cccc(-c3nc4ccccc4[nH]3)c2)c1 the XC50 was 1020 nM. In the case of CC(C)Oc1ccccc1-c1csc(C(=O)NCC2CCN(Cc3ccc(C(C)(C)C)cc3)C2)c1 (stereo not drawn), the XC50 was 1070 nM. Clc1cnc2ccc3c(c2c1CCN1CCC(NCc2cc4c(cn2)OCCO4)CC1)OCCO3 was tested, and the XC50 was 718 nM. In the case of COc1ccccc1N1CCN(C(C(=O)NCc2ccc3c(c2)OCO3)c2ccc(C)cc2)CC1 (stereo not drawn), the XC50 was 985 nM. In the case of O=C(Nc1cccc(F)c1)N1CCC(NS(=O)(=O)c2ccc(Br)cc2)CC1, the XC50 was 979 nM. Compound COc1ccc2nccc(N3CCC(CCNCc4ccc5c(n4)NC(=O)CO5)CC3)c2c1 has an XC50 of 705 nM. CC(C)C[C@H](NC(=O)c1cc2cc(OCCN3CCNCC3)ccc2o1)C(=O)NC1CC[C@@H](C)N(C(=O)Nc2ccc(Cl)cc2)CC1=O (stereo partly drawn) was tested, and the XC50 was 382 nM. O=C(Nc1ccc(F)cc1F)NC1CCN(CCCCCNC(=O)C2CC2c2ccc(Cl)c(Cl)c2)CC1 (stereo not drawn) was tested, and the XC50 was 496 nM. Compound O=C(Nc1ccc(Oc2ccccc2)cc1)N[C@H]1CCN(Cc2ccc(OCCCN3CCCCC3)cc2)C1 has an XC50 of 179 nM. In the case of O=c1cc(NCCCNCc2scc(I)c2I)[nH]c2ccccc12, the XC50 was 586 nM. Work on COCCN(CCOC)c1ncc(-c2ccsc2)c(-c2nc(C)c(C)s2)n1 yielded an XC50 of 843 nM. N#Cc1ccc(CNCCCCCCNCc2ccc(C#N)c3ccccc23)c2ccccc12 was tested, and the XC50 was 610 nM. O=C(NCc1ccccc1)c1ncn(CCCN2CCC(N3CCCC3)CC2)c1-c1ccc(Cl)c(Cl)c1 gave an XC50 of 1120 nM. With Cc1cccc(C)c1OC(=O)C(C)C(O)C1(Sc2ccccc2)CCN(C)CC1 (stereo not drawn) the XC50 was 734 nM. COc1cc(C(=O)N2CCOC(CCN3CCC(Cc4ccc(F)cc4)CC3)(c3ccc(Cl)c(Cl)c3)C2)cc(OC)c1OC (stereo not drawn) was tested, and the XC50 was 902 nM. Compound O=C(NCc1cccc2ccccc12)C(c1cc2ccccc2o1)N1CCN(C(c2ccccc2)c2ccccc2)CC1 (stereo not drawn) has an XC50 of 667 nM. Cc1[nH]c(C)c(-c2ccc(OCc3ccc(F)cc3)cc2)c(=O)c1Cl showed an XC50 of 566 nM. For CCCCSc1ccc(CNCCCCCCNCc2ccc(SCCCC)c3ccccc23)c2ccccc12, the XC50 was 631 nM. Work on CC(C)CC(=O)Nc1cc(=O)[nH]c2nc(-c3ccccc3)nn12 yielded an XC50 of 351 nM. With Oc1ccc(CCNCCCCCCNCCc2ccc(Br)cc2)cc1O the XC50 was 1020 nM. COc1c(C2CCN(CCCCNC(=O)c3cc(-c4ccc(Cl)cc4)[nH]c3C)CC2)ccc2c1CCCC2 was tested, and the XC50 was 970 nM. With Cc1cc(NCCC(=O)NCCOc2ccccc2)nc(NCc2ccccc2C)n1 the XC50 was 867 nM. For CN1CCN(c2ccnc3ccc(NC(=O)Nc4ccc(Cl)cc4)cc23)CC1, the XC50 was 112 nM. COc1cc(C)nc2ccc(NC(=O)Nc3cccc4ccccc34)cc12 gave an XC50 of 878 nM. In the case of O=C(NCc1ccc(C(=O)NC2CCCCC2)cc1)c1ccc(O)c(-c2ccc(Cl)c(Cl)c2)c1, the XC50 was 875 nM. For CCCCc1cc(NC2CCN(C)CC2)nc(Nc2ccccc2)n1, the XC50 was 658 nM. c1cncc(-c2cc(N3CCc4ccccc4C3)nc(-c3ccncc3)n2)c1 showed an XC50 of 40.9 nM. CNCc1ccc2nc(-c3coc(Cc4cc(Cl)ccc4OCC(C)C)n3)[nH]c2c1 was tested, and the XC50 was 838 nM. For COc1ccc(-c2cccc(NC(=O)c3ccc(Cl)cc3)c2)cc1CN(C)CCN(C)C, the XC50 was 776 nM. Compound CC(C)Nc1nc(NC2CCCCC2)nc(N2CCCCCCC2)n1 has an XC50 of 1090 nM. For Cc1cc(O)nc(NC(=N)NOCCCc2ccccc2)n1, the XC50 was 760 nM. In the case of Fc1cccc(Nc2nc(NCc3ccc(Cl)c(Cl)c3)nc(Nc3cccc(F)c3)n2)c1, the XC50 was 748 nM. Cc1c(C(=O)NC2CCC(CN3CCC(c4c[nH]c5ccccc45)CC3)CC2)cnn1-c1c(Cl)cc(Cl)cc1Cl (stereo not drawn) showed an XC50 of 711 nM. With CN1CCC(c2cc3c(cc2Br)CCN3C(=O)Nc2ccc(-c3ccncc3)c(Cl)c2)CC1 the XC50 was 1010 nM. CCOP(=O)(OCC)c1ccc(OC)c(-c2ccc[nH]2)c1 was tested, and the XC50 was 1190 nM. COc1ccc2[nH]c(C)cc(=NN=Cc3ccc(Cl)cc3)c2c1 showed an XC50 of 228 nM. In the case of CN(C)c1ccc(-c2ccc(C(=O)NC3CCN(Cc4ccc(F)cc4)CC3)s2)cc1, the XC50 was 1050 nM. In the case of COc1cccc(CNC[C@@H](O)[C@H](Cc2ccccc2)NC(=O)c2cc(NC(C)C)cc(N3CCCCS3(=O)=O)c2)c1, the XC50 was 784 nM. Work on CC(C)Cc1nc2nc(N)nc(N)c2cc1C(C)C yielded an XC50 of 226 nM. Work on CCc1cc(COc2ccc(CNCCC(C)C)cc2I)c(OCc2ccccc2)c(COc2ccc(CNCCC(C)C)cc2I)c1 yielded an XC50 of 1110 nM. In the case of COc1cc(F)c2nccc([C@@H](O)CN3CCC(NC(=O)OCc4ccccc4)C(F)C3)c2c1 (stereo partly drawn), the XC50 was 407 nM. With Nc1ncc(OC2CCCCC2)c(N)n1 the XC50 was 1070 nM. Compound CC(C)c1nc2c(N)nc(N)nc2nc1N has an XC50 of 1310 nM. CCCCCN1CCCC1CNS(=O)(=O)c1cccc(C(=O)Nc2cccc(C(F)(F)F)c2)c1 (stereo not drawn) gave an XC50 of 770 nM. For COC(=O)c1cccc(N2CCN(CCCNC(=O)/C(=C/C=C/c3cc4cc(Cl)c(Cl)cc4[nH]3)OC)CC2)c1, the XC50 was 667 nM. Work on NCC1CCCN1Cc1ccc(-c2ccc(-c3nc4ccccc4[nH]3)s2)cc1 (stereo not drawn) yielded an XC50 of 934 nM. With CN1CCC(C(=O)N(Cc2ccc(-c3ccc(CNCCc4ccccc4)cn3)cc2)C2CCN(Cc3ccccc3)CC2)CC1 the XC50 was 787 nM. For N=C1C=C(N)C(=O)c2ccccc21, the XC50 was 1050 nM. In the case of COc1cc2nc(NCCc3ccccc3)nc(NC(C)c3ccccc3)c2cc1OC (stereo not drawn), the XC50 was 281 nM. With O=C(/C=C/c1ccc(Cl)c(Cl)c1)NCCCCCN1C2CCC1CC(c1c[nH]c3ccccc13)C2 (stereo not drawn) the XC50 was 840 nM. For CCc1cn2c3c(cc(C(=O)N[C@@H](Cc4cccc(Cl)c4)[C@H](O)CNC4CC4)cc13)N(C)S(=O)(=O)CC2, the XC50 was 145 nM. Compound O=C(Nc1cccc([N+](=O)[O-])c1)N(Cc1ccc(Cl)c(Cl)c1)C1CCNCC1 has an XC50 of 719 nM. For O=C(Nc1ccc(OC2CCN(Cc3ccccc3)CC2)c(Cl)c1)c1ccc(F)cc1, the XC50 was 796 nM. In the case of CCCCN(CCCC)C(=N)c1cccc2c1CCCC2, the XC50 was 1560 nM. For Cc1cccc2nc(-c3ccc(-c4cccc(CN5CCC(C(N)=O)CC5)c4)s3)[nH]c12, the XC50 was 1260 nM. Work on N=C(N)c1ccc(C=Cc2ccc(C(=N)N)cc2O)cc1 yielded an XC50 of 103 nM. CCCCCCN1CCC(NCc2cccc3ccccc23)CC1 showed an XC50 of 811 nM. Work on CCCc1ccc(N2C(N)=NC(N)=NC2(C)C)cc1 yielded an XC50 of 28.4 nM. CCN1CCC2(c3cccc(OC)c3)Cc3nc4ccccc4c(-c4ccccc4)c3CC2C1 (stereo not drawn) gave an XC50 of 348 nM. Compound Cc1ccc(C(=O)Nc2ccc(F)c(F)c2F)cc1S(=O)(=O)N1CCCCC1 has an XC50 of 763 nM. Compound COc1cc(NC(=O)c2cc3c(C)nn(-c4cccc(C(F)(F)F)c4)c3s2)cc(OC)c1OC has an XC50 of 801 nM. CS(=O)(=O)Nc1ccc(-c2cnc3[nH]cc(-c4ccc(C(=O)O)cc4)c3c2)cc1 showed an XC50 of 800 nM. Compound O=C(NCCCCN1CCCC2c3cccc(O)c3CCC21)c1ccc(-c2ccccc2)cc1 (stereo not drawn) has an XC50 of 1170 nM. Work on COc1ccc(NC(=O)Nc2ccc(-c3ccccc3)cc2)cc1Cn1nc(Cl)c(N2CCCNCC2)cc1=O yielded an XC50 of 364 nM. With Cc1cc(CN2CC[C@H](NC(=O)c3ccc(Cl)c(Cl)c3)C2)ccc1OCCN1CCNCC1 the XC50 was 944 nM. Compound O=C(Nc1nc(-c2cc(F)ccc2F)cs1)c1cncc(Br)c1 has an XC50 of 1080 nM. In the case of N=C(N)c1ccc(NN=Cc2ccc(Oc3ccc(C(=N)N)cc3)cc2)cc1, the XC50 was 90.2 nM. COc1ccc(C2CCN(CCN3CCC(NC(=O)c4ccc(-c5cccc(C(F)(F)F)c5C(F)(F)F)cc4)CC3)CC2)c(OC)c1 showed an XC50 of 419 nM. Compound COc1cc(C(=O)NC2CC(C)(C)N(C)C(C)(C)C2)ccc1-c1nc2cc(Cl)c(Cl)cc2[nH]1 has an XC50 of 788 nM. CCc1ccc(-n2cc(C(=O)c3cc(Br)ccc3O)cc(C#N)c2=O)cc1 was tested, and the XC50 was 797 nM. With COc1ccc(CN2CCN(CCOC(c3ccccc3)c3ccc(Cl)cc3)CC2)c(O)c1 (stereo not drawn) the XC50 was 713 nM. Compound COc1cccc(C2CCN(CCN3CCC(NC(=O)c4ccc(-c5ccc(C#N)cc5)cc4)CC3)CC2)c1 has an XC50 of 699 nM. COc1ccc2ncc(F)c(CCN3CC(O)C(CNCc4ccc(F)cc4)C3)c2n1 (stereo not drawn) gave an XC50 of 821 nM. For O=C(Nc1cccc(CN2CCCN(Cc3cccc(Cl)c3)CC2)c1)c1ccc(-c2ccccc2)cc1, the XC50 was 1230 nM. Work on COc1ccc(NC(=O)CCNc2cc(C)nc(Nc3ccccc3)n2)cc1 yielded an XC50 of 1100 nM. With COc1ccc(-c2nonc2NC(=O)c2cccc(Cl)c2)cc1OC the XC50 was 876 nM. Compound COc1c(C2CCN(CCCCNC(=O)c3noc(-c4ccc(C#N)cc4)n3)CC2)ccc2c1CCCC2 has an XC50 of 776 nM. For COc1ccc(Nc2ncc3c(-c4cccc(NC(=O)Cc5ccc(O)cc5)c4)c[nH]c3n2)cc1OC, the XC50 was 570 nM.

From ChEMBL document CHEMBL1157539, “Thousands of chemical starting points for antimalarial lead identification” (Nature, 2010)
